Literature values in patent publication US20230158030A1, “METHODS AND COMPOSITION FOR TREATMENT OF COVID-19 ILLNESS REQUIRING HOSPITALIZATION” (OHIO STATE INNOVATION FOUNDATION, priority 2020, published 2023).

Experiments:
covid-19 = conditions: active covid-19 syndrome
T-cell function = conditions: TLR agonists, PD1 blockade, CAR-T cells
[1] = test system: CAR-T cell mediated cytokine release syndrome; conditions: murine CAR-T cytokine release syndrome model
pneumococcal pneumonia = conditions: murine pneumococcal pneumonia
[2] = intranasally to mice starting 72 h after lethal infection

For `CCN(CCO)CCCC(C)Nc1ccnc2cc(Cl)ccc12` (stereo not shown) [hydroxychloraquine], the “benefit among ill patients” value (covid-19) is listed as “antidotal benefit”.

For `C=CC(=O)N1CCC[C@@H](n2nc(-c3ccc(Oc4ccccc4)cc3)c3c(N)ncnc32)C1` [ibrutinib, 1-[(3R)-3-[4-amino-3-(4-phenoxyphenyl)pyrazolo[3,4-d]pyrimidin-1-yl]piperidin-1-yl]prop-2-en-1-one], the “enhancement of other T-cell based therapies” value (T-cell function) is given as “enhance other T-cell based therapies”, the overall survival (influenza A virus; [2]) is given as “improved overall survival” and the weight loss (influenza A virus; [2]) is given as “diminished weight loss”. For the same compound, the “inflammatory mediators TNFalpha, IL-1beta, IL-6, KC, and MCP-1” value (influenza A virus; mice, lethal influenza A) was “diminished”, the “morphological changes to the lungs” value (influenza A virus; mice, lethal influenza A) was “decreased alveolar hemorrhage, interstitial thickening, and the presence of alveolar exudate” and the “T-cell expansion or killing” value [1] was “not abrogating T-cell expansion or killing”. The survival [1] was “improved survival”, the “antibiotic mediated killing of bacteria” value (pneumococcal pneumonia) was “not impaired” and the “monocyte and neutrophil influx into the lung, alveolar macrophage activation, neutrophil influx, cytokine release and plasma leakage” value (pneumococcal pneumonia) was “negatively influence”.
